Results taken from patent US7943580B2, “Polypeptide and the use thereof” (National Cerebral and Cardiovascular Center, priority 2004, dated 2011).

Legend:
conscious rats [1] = assay: Blood hormone levels after central administration of NUNP and NSNP; type: in vivo, rat; conditions: 20 minutes after central administration of 1 nmol
chick rectum = assay: Contractile activity on the chick rectum; conditions: dose of 10 pmol, 37° C., Krebs-Henseleit solution
Description: Contraction of the rectum was then measured.

c-Fos protein = assay: Immunostaining for c-Fos protein in the suprachiasmatic nucleus after intracerebroventricular administration; type: in vivo, rat; conditions: intracerebroventricular 1 nmol at CT6, 90 minutes after administration, compared to physiological saline
Description: Male Wistar rats (300-350 g) were used for the experiment of circadian rhythm phase shift. Intracerebroventricular administration was performed in accordance with the method of Ida et al. (Ida, T., et al., (1999) Brain Res., 821, 526, 1999). The spontaneous locomotor activity was measured by the method of Nakahara et al. (Nakahara, K., et al., Biochem. Biophys. Res. Commun., 318, 156, 2004). The phase shift of spontaneous locomotor activity rhythm was calculated based on the distance between the lines drawn by plotting a delay in time of daily onset of spontaneous locomotor activity for at least 10 days before and after the intracerebroventricular administration of NMS or physiological saline. […] Phase-response data were evaluated using one-way ANOVA followed by Scheffe's multiple comparisons test. […] The spontaneous locomotor activity was recorded for 2 weeks before and after the administration, respectively, according to the method of Nakahara et al. (Nakahara, K., et al., Biochem. Biophys. Res. Commun., 318, 156, 2004). At the conclusion of the experiment, the exact location of the cannula was determined histologically as follows. […] The sections were analyzed by comparing to the corresponding rat brain atlas of Paxinos and Watson (Paxinos, G. and Watson, C., The rat brain in stereotaxic coordinates, Academic Press, New York, USA, 1998). […]

Wistar rats [2] = assay: Phase shift of circadian rhythms in spontaneous locomotor activity; type: in vivo, rat
Description: Male Wistar rats (300-350 g) were used for the experiment of circadian rhythm phase shift. Intracerebroventricular administration was performed in accordance with the method of Ida et al. (Ida, T., et al., (1999) Brain Res., 821, 526, 1999). The spontaneous locomotor activity was measured by the method of Nakahara et al. (Nakahara, K., et al., Biochem. Biophys. Res. Commun., 318, 156, 2004). The phase shift of spontaneous locomotor activity rhythm was calculated based on the distance between the lines drawn by plotting a delay in time of daily onset of spontaneous locomotor activity for at least 10 days before and after the intracerebroventricular administration of NMS or physiological saline. The onset time of spontaneous locomotor activity was designated as CT12 (circadian time 12). Phase-response data were evaluated using one-way ANOVA followed by Scheffe's multiple comparisons test. […] At 90 minutes after the administration, rats were perfused with 2% paraformaldehyde. Immunostaining for c-Fos protein was performed according to the method of Date et al. (Date, Y, et al., Proc. Natl. Acad. Sci. USA, 96, 748, 1999). The intra-suprachiasmatic nucleus perfusion was performed by an improvement of the Piggins et al. method (Piggins, H. D., et al., J. Neurosci., 15, 5612, 1995). Rats were allowed to free run under constant dark conditions for 2 weeks. Each rat was then implanted with a 26-gauge stainless steel guide cannula in the stereotaxic coordinates by Paxinos and Watson (Paxinos, G. and Watson, C., The rat brain in stereotaxic coordinates, Academic Press, New York, USA, 1998) to reach the suprachiasmatic nucleus. […] The spontaneous locomotor activity was recorded for 2 weeks before and after the administration, respectively, according to the method of Nakahara et al. (Nakahara, K., et al., Biochem. Biophys. Res. Commun., 318, 156, 2004). At the conclusion of the experiment, the exact location of the cannula was determined histologically as follows. Rats received 1 μl of India ink to mark the administered site and were then decapitated. The brain was immediately frozen and cut on a cryostat into 20 μm coronal sections, followed by staining with Crystal Violet. The sections were analyzed by comparing to the corresponding rat brain atlas of Paxinos and Watson (Paxinos, G. and Watson, C., The rat brain in stereotaxic coordinates, Academic Press, New York, USA, 1998). When data obtained for the location was more than 200 μm away from the external border of the suprachiasmatic nucleus, the data was excluded from further analysis.

conscious rats [3] = assay: Prolactin release suppressing activity by central administration of NMS; type: in vivo, rat; conditions: 20 minutes after central administration of 1 nmol
Description: (§1) A catheter was placed in the lateral ventricle of Wistar rats (male, 8 weeks old) and housed under controlled conditions with free access to their diet, while they were accustomed to experimental procedures (22°, light-on from 7:00 to 19:00). […] (1) For feed intake during the dark phase, NMS was administered at 18:00 and their feed intake was measured during 19:00 to 7:00. In addition, (2) NMS was administered to 14 hour-fasted rats at 9:00 and immediately thereafter the feed intake was measured for 2 hours.
Changes in prolactin blood level by central administration of NMS were monitored. Central administration to conscious rats was performed as in EXAMPLE 9. Blood was collected by decapitation 20 minutes after peptide administration. Prolactin was assayed using RIA kit (Amersham).

Sprague-Dawley rats = assay: Hypertensive activity by transvenous administration to rat; conditions: dose of 3 nmol/kg, pentobarbital-anesthetized rats
Wistar rats [4] = assay: Effect on feed intake by central administration; type: in vivo, rat
Description: as §1

conscious rats [5] = assay: Blood hormone levels after central administration of NUNP and NSNP; type: in vivo, rat; conditions: for prolactin level in blood: 20 minutes after central administration of 1 nmol
Description: as §1
(§2) Changes in prolactin blood level by central administration were monitored. Central administration to conscious rats was performed in the same way as in EXAMPLE 9. The animal received rat NUNP-36 or rat NSNP-37 prepared by the procedure of EXAMPLE 14 and dissolved in physiological saline and then decapitated, followed by blood collection in 20 minutes or blood collection via the tail vein at each time after peptide administration. Prolactin was measured using RIA kit (Amersham). A direct effect on pituitary anterior cells was also examined. The pituitary anterior cells were prepared from Wistar rats (5 week old, male), incubated in a 96-well plate for 2 days and used for the experiment. After rat NUNP-36 or rat NSNP-37 was added, the culture supernatant was recovered 30 minutes after and the prolactin level was measured.

pituitary anterior cells = assay: Prolactin release from primary culture of anterior pituitary cells; type: cell-based; conditions: primary culture of rat anterior pituitary cells, supernatant recovered 30 minutes after addition
Description: as §2

For “rat NSNP-37: rat neuromedin S N-terminal peptide-37, SEQ ID NO: 10 (FLFHYSRAWKSTHPVNSEFAPVHPLMRLAAKLPSRRM; listed as Rattus norvegicus)”, the “follicle-stimulating hormone level in blood” value (conscious rats [1]) was 10.64 ± 0.72 ng/mL, the “other blood hormone (growth hormone, luteinizing hormone, corticosterone) levels” value (conscious rats [1]) was “any significant change was not noted” and the “thyroid-stimulating hormone level in blood” value (conscious rats [1]) was 5.37 ± 0.51 ng/mL.

“LPRLLHTDSRMATIDFPKKDPTTSLGRPFFLFRPRN [rat NMS]” was tested, and the “contraction of the chick rectum” value (chick rectum) was “significant contractile activity”, the “expression of c-Fos protein in the suprachiasmatic nucleus” value (c-Fos protein) was “increased” and the “phase of spontaneous locomotor activity” value (Wistar rats [2]; intracerebroventricular 1 nmol at CT3-9, constant dark conditions) was “advances in the phase”. The “phase of spontaneous locomotor activity” value (Wistar rats [2]; intracerebroventricular 1 nmol at CT22-24, constant dark conditions) was “delays in the phase”, the “phase of spontaneous locomotor activity” value (Wistar rats [2]; intracerebroventricular 1 nmol at any other time, constant dark conditions) was “No phase shift was observed” and the “length of circadian rhythm” value (Wistar rats [2]; intracerebroventricular administration, any time) was “not affected”. For the same substance, the “phase of circadian rhythms of spontaneous locomotor activity” value (Wistar rats [2]; microinjected directly into the suprachiasmatic nucleus at CT6) was “phase advances”, the “phase of circadian rhythms of spontaneous locomotor activity” value (Wistar rats [2]; microinjected directly into the suprachiasmatic nucleus at CT23) was “delays” and the blood prolactin level (conscious rats [3]) was 3.6 ± 1.2 ng/mL. For the same substance, the “blood pressure of rats” value (Sprague-Dawley rats) was “significantly increased the blood pressure”, the “2 hour feed intake of fasted rats” value (Wistar rats [4]; 0.5 nmol into the lateral ventricle, 14 hour-fasted rats) was “significantly suppressed the feed intake” and the “feed intake during the dark phase” value (Wistar rats [4]; administered into the lateral ventricle at 18:00, feed intake measured 19:00 to 7:00) was “significantly suppressed the feed intake dose-dependently”. The “dose at which the feed intake suppressing effect showed the maximum” value (Wistar rats [4]; dark phase feed intake, lateral ventricle administration) was 1 nmol.

For “rat NUNP-36: rat neuromedin U N-terminal peptide-36, SEQ ID NO: 40 (FLFHYSKTQKLGNSNVVSSVVHPLLQLVPQLHERRM; listed as Rattus norvegicus)”, the “prolactin level in blood” value (conscious rats [5]) was 68.74 ± 10.4 ng/mL, the “prolactin level in blood” value (conscious rats [5]; listed as Rat NUNP-36) was 27.34 ± 5.63 ng/mL and the “time at which the prolactin level reached the peak” value (conscious rats [5]; central administration at 1 nmol and 0.2 nmol) was 20 min. For the same substance, the “prolactin level in blood, dose and time dependency” value (conscious rats [5]; since 10 minutes after central administration at 1 nmol and 0.2 nmol) was “significant increase of prolactin level”, the “follicle-stimulating hormone level in blood” value (conscious rats [1]) was 12.26 ± 0.95 ng/mL and the “other blood hormone (growth hormone, luteinizing hormone, corticosterone) levels” value (conscious rats [1]) was “any significant change was not noted”. The “thyroid-stimulating hormone level in blood” value (conscious rats [1]) was 4.92 ± 0.22 ng/mL and the “prolactin in the culture supernatant” value (pituitary anterior cells) was “no change was noted”.
